By IC50 is commonly meant the concentration that gives 50% inhibition. The pKa is the negative logarithm of the acid dissociation constant.

In series [1] the target is T1, Protein deacetylase HDAC6 (Homo sapiens, UniProt Q9UBN7).
T1 sequence (Q9UBN7 whole entry): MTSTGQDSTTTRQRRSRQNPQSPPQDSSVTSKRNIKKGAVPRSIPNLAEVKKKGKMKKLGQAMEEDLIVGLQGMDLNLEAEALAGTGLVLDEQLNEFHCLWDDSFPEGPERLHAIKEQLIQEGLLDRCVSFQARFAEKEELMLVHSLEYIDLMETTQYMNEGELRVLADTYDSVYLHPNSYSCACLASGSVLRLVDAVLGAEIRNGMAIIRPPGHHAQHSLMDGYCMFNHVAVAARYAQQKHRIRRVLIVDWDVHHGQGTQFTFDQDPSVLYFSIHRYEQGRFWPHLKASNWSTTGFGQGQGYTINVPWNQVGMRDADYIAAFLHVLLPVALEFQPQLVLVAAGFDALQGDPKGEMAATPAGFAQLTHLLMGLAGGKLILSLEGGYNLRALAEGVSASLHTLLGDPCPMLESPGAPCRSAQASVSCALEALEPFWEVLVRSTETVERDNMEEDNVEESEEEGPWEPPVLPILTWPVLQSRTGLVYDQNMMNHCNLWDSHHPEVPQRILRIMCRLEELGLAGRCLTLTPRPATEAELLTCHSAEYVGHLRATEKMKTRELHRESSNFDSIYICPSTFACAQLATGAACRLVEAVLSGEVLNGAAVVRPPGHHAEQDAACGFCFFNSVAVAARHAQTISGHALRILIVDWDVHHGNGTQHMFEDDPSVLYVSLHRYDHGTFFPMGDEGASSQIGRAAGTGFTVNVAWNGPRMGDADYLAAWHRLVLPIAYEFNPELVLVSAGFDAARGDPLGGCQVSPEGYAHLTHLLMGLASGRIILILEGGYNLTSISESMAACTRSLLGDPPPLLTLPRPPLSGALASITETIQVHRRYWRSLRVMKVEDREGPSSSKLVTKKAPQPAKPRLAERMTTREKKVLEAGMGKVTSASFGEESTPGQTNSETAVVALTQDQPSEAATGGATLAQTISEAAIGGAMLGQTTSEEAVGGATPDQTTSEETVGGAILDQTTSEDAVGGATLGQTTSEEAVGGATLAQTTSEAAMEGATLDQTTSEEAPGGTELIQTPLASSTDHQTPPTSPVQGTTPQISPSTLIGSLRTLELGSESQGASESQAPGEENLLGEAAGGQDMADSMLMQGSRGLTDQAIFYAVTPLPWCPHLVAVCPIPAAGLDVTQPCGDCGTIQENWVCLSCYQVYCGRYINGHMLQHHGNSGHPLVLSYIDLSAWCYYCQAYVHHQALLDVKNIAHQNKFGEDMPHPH
As to the kind of experiment: Inhibition of HDAC6 (unknown origin) using (FAM)-labeled acetylated peptide as substrate measured after 17 hrs by fluorescence assay.

The target in another series is Histone deacetylase 3 (Homo sapiens, UniProt O15379). The experiment in a line: Inhibition of HDAC3 (unknown origin) using (FAM)-labeled acetylated peptide as substrate measured after 17 hrs by fluorescence assay.
The target in series [2] is T2, Histone deacetylase 8 (Homo sapiens, UniProt Q9BY41).
T2 sequence (Q9BY41 whole entry): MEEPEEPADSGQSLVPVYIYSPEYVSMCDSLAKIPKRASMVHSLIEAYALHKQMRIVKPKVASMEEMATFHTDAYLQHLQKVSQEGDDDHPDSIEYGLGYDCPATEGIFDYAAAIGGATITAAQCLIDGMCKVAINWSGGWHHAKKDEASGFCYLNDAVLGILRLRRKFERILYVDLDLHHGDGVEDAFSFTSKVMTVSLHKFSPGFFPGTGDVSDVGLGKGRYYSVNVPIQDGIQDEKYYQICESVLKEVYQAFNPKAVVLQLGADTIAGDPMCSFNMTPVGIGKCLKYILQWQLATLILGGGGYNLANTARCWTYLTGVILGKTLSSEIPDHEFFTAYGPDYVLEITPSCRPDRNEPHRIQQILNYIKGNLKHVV
The experiment in a line: Inhibition of HDAC8 (unknown origin) using (FAM)-labeled acetylated peptide as substrate measured after 17 hrs by fluorescence assay.

Series [3] addresses T3, Polyamine deacetylase HDAC10 (Homo sapiens, UniProt Q969S8).
T3 sequence (Q969S8 whole entry): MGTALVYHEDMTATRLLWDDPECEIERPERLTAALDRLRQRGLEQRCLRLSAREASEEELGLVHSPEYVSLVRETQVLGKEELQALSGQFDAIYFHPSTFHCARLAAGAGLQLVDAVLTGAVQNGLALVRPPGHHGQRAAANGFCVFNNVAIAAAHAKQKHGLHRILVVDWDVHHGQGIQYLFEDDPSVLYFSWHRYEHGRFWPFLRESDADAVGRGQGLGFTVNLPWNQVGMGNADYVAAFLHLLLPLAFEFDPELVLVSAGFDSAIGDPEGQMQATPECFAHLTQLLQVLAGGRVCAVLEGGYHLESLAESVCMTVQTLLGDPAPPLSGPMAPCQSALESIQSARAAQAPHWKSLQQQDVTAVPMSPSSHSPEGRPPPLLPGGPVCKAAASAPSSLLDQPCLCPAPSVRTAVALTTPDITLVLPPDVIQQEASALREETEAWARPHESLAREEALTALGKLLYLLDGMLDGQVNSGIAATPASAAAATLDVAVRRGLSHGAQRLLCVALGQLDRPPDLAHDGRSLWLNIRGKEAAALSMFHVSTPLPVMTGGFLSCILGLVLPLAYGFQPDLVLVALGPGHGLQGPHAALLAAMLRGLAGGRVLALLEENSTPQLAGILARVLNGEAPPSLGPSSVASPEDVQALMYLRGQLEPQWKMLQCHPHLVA
As to the kind of experiment: Inhibition of HDAC10 (unknown origin) using (FAM)-labeled acetylated peptide as substrate measured after 17 hrs by fluorescence assay.

Series [4] deals with T4, Histone deacetylase 2 (Homo sapiens, UniProt Q92769). The experiment in a line: Inhibition of HDAC2 (unknown origin) using (FAM)-labeled acetylated peptide as substrate measured after 17 hrs by fluorescence assay.
In series [5] the target is T5, Histone deacetylase 1 (Homo sapiens, UniProt Q13547). The experiment in a line: Inhibition of HDAC1 (unknown origin) using (FAM)-labeled acetylated peptide as substrate measured after 17 hrs by fluorescence assay.
In series [6] the target is T6, Histone deacetylase 7 (Homo sapiens, UniProt Q8WUI4).
T6 sequence (Q8WUI4 whole entry): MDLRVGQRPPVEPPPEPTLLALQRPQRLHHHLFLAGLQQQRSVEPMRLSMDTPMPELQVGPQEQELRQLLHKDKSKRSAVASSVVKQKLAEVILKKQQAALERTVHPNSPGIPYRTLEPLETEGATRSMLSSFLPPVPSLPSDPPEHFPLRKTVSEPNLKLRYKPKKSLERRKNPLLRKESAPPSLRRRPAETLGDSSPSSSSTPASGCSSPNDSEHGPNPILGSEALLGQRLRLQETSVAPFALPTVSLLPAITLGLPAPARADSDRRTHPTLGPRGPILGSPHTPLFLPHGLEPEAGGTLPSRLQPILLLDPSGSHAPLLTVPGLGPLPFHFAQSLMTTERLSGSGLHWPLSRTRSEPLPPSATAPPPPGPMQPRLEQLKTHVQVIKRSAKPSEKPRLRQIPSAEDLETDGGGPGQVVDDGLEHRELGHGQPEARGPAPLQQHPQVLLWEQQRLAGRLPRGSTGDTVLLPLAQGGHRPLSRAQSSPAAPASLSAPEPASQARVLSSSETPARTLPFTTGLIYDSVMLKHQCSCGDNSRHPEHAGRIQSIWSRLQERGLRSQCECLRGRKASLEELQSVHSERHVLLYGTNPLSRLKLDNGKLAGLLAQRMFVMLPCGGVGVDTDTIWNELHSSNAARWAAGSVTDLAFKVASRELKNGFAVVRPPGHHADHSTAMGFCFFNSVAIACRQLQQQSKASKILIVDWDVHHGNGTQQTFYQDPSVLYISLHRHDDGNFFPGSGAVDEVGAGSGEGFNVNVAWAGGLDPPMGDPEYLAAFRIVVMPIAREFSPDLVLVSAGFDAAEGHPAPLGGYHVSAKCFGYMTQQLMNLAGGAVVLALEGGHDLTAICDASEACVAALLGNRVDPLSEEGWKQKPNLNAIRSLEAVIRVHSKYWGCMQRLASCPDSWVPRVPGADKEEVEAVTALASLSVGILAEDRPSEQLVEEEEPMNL
As to the kind of experiment: Inhibition of HDAC7 (unknown origin).

Another series has as its target Histone deacetylase 5 (Homo sapiens, UniProt Q9UQL6). The experiment in a line: Inhibition of HDAC5 (unknown origin).
The target of series [7] is T7, Histone deacetylase 4 (Homo sapiens, UniProt P56524). As to the kind of experiment: Inhibition of HDAC4 (unknown origin).
The target of series [8] is Histone deacetylase 3/NCoR1 (Homo sapiens, UniProt O15379). The experiment in a line: Inhibition of human recombinant HDAC3/GST-tagged NCOR1 DAD (397 to 503 residues) expressed in baculovirus expression system by fluorescence assay.
The target of series [9] is T1, Protein deacetylase HDAC6. As to the kind of experiment: Inhibition of recombinant human full length N-terminal GST-tagged HDAC6 expressed in Sf9 insect cells using (S)-6-acetamido-2-(2-((S)-2-acetamido-4-methylpentanamido)acetamido)-N-(4-methyl-2-oxo-2H-chromen-7-yl)hexanamide as substrate by fluorescence assay.
Series [10] can be described thus: Dissociation constant, pKa of the compound. In kind it is physicochemical.
For series [11], the target named is T5, Histone deacetylase 1. As to the kind of experiment: Inhibition of recombinant human HDAC1 using fluorescently-labeled acetylated histone peptide as substrate by microfluidic mobility shift assay.
Series [12] deals with T2, Histone deacetylase 8. The experiment in a line: Inhibition of recombinant human HDAC8 using fluorescently-labeled acetylated histone peptide as substrate by microfluidic mobility shift assay.
Series [13] deals with T1, Protein deacetylase HDAC6. As to the kind of experiment: Inhibition of recombinant human HDAC6 using fluorescently-labeled acetylated histone peptide as substrate by microfluidic mobility shift assay.
Series [14] concerns the target T6, Histone deacetylase 7. The experiment in a line: Inhibition of recombinant human HDAC7 using fluorescently-labeled acetylated histone peptide as substrate by microfluidic mobility shift assay.
In series [15] the target is T4, Histone deacetylase 2. The experiment in a line: Inhibition of recombinant human HDAC2 using fluorescently-labeled acetylated histone peptide as substrate by microfluidic mobility shift assay.
Series [16] concerns the target T7, Histone deacetylase 4. As to the kind of experiment: Inhibition of recombinant human HDAC4 using fluorescently-labeled acetylated histone peptide as substrate by microfluidic mobility shift assay.

T4 sequence (Q92769 whole entry): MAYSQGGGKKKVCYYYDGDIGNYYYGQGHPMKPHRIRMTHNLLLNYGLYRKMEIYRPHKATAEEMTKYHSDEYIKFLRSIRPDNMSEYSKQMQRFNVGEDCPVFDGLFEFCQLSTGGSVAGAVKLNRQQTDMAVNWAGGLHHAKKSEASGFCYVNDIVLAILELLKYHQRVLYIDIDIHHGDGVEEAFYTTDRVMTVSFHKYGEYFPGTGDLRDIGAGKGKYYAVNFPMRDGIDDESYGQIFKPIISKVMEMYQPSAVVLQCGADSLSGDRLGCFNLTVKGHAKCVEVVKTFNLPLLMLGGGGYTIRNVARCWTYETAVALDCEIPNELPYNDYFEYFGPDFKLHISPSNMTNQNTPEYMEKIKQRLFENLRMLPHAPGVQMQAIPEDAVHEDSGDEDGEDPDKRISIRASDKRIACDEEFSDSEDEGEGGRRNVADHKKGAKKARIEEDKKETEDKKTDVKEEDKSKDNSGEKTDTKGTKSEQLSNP
Chain of Histone deacetylase 3 (O15379 whole entry): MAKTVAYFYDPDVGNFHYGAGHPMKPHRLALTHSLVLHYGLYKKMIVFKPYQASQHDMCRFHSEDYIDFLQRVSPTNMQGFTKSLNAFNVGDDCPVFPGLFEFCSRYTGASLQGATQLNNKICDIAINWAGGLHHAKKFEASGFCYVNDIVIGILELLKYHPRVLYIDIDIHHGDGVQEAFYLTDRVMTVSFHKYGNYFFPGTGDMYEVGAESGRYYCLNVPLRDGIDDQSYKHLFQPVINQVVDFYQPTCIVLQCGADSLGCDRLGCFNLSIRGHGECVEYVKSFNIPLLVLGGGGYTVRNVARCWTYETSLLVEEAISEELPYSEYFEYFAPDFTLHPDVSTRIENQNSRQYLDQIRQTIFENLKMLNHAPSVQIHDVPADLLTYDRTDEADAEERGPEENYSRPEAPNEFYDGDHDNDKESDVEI
T5 sequence (Q13547 whole entry): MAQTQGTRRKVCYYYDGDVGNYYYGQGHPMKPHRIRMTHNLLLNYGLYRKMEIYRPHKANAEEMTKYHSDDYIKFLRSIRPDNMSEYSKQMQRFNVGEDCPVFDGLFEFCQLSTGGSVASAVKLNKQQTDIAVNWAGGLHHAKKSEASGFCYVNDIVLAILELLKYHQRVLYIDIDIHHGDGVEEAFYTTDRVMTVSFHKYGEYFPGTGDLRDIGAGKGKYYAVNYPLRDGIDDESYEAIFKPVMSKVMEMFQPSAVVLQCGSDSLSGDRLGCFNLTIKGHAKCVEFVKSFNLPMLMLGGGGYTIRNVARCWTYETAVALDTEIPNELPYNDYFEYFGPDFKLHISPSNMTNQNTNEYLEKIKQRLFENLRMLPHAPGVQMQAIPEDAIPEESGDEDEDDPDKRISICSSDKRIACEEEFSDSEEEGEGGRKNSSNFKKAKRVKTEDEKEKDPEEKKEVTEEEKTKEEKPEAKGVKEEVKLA
T7 sequence (P56524 whole entry, the tested form may be a part): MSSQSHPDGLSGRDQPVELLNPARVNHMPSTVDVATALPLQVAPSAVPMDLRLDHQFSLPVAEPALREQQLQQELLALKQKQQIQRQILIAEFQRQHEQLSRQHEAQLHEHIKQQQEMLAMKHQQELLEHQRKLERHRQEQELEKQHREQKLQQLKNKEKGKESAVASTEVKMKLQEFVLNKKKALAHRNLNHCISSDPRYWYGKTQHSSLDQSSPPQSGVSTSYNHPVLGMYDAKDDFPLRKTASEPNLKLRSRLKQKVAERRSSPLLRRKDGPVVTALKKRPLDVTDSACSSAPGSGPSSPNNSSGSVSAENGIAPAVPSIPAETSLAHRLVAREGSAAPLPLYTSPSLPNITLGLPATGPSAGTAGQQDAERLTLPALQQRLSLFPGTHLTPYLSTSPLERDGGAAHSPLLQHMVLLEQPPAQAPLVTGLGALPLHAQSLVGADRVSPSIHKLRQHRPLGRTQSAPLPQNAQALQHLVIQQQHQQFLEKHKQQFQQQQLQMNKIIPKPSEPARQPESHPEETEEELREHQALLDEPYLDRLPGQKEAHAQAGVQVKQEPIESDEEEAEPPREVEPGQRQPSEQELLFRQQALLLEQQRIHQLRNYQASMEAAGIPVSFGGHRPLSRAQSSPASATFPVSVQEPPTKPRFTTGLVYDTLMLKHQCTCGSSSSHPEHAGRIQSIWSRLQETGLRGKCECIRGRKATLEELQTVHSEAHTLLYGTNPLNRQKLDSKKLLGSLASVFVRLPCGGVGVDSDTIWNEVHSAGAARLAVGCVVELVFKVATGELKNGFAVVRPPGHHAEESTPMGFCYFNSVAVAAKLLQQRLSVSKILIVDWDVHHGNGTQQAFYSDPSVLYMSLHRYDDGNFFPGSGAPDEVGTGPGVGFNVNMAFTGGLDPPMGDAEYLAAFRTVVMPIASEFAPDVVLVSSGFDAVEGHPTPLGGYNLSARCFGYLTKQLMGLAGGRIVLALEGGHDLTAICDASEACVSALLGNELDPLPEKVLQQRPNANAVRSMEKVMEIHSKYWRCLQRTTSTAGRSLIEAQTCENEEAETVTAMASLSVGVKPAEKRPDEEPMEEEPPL
Chain of Histone deacetylase 3/NCoR1 (O15379 whole entry, the tested form may be a part): as the sequence (O15379 whole entry) above
Chain of Histone deacetylase 3/NCoR1 (O75376 whole entry, further chain, the tested form may be a part): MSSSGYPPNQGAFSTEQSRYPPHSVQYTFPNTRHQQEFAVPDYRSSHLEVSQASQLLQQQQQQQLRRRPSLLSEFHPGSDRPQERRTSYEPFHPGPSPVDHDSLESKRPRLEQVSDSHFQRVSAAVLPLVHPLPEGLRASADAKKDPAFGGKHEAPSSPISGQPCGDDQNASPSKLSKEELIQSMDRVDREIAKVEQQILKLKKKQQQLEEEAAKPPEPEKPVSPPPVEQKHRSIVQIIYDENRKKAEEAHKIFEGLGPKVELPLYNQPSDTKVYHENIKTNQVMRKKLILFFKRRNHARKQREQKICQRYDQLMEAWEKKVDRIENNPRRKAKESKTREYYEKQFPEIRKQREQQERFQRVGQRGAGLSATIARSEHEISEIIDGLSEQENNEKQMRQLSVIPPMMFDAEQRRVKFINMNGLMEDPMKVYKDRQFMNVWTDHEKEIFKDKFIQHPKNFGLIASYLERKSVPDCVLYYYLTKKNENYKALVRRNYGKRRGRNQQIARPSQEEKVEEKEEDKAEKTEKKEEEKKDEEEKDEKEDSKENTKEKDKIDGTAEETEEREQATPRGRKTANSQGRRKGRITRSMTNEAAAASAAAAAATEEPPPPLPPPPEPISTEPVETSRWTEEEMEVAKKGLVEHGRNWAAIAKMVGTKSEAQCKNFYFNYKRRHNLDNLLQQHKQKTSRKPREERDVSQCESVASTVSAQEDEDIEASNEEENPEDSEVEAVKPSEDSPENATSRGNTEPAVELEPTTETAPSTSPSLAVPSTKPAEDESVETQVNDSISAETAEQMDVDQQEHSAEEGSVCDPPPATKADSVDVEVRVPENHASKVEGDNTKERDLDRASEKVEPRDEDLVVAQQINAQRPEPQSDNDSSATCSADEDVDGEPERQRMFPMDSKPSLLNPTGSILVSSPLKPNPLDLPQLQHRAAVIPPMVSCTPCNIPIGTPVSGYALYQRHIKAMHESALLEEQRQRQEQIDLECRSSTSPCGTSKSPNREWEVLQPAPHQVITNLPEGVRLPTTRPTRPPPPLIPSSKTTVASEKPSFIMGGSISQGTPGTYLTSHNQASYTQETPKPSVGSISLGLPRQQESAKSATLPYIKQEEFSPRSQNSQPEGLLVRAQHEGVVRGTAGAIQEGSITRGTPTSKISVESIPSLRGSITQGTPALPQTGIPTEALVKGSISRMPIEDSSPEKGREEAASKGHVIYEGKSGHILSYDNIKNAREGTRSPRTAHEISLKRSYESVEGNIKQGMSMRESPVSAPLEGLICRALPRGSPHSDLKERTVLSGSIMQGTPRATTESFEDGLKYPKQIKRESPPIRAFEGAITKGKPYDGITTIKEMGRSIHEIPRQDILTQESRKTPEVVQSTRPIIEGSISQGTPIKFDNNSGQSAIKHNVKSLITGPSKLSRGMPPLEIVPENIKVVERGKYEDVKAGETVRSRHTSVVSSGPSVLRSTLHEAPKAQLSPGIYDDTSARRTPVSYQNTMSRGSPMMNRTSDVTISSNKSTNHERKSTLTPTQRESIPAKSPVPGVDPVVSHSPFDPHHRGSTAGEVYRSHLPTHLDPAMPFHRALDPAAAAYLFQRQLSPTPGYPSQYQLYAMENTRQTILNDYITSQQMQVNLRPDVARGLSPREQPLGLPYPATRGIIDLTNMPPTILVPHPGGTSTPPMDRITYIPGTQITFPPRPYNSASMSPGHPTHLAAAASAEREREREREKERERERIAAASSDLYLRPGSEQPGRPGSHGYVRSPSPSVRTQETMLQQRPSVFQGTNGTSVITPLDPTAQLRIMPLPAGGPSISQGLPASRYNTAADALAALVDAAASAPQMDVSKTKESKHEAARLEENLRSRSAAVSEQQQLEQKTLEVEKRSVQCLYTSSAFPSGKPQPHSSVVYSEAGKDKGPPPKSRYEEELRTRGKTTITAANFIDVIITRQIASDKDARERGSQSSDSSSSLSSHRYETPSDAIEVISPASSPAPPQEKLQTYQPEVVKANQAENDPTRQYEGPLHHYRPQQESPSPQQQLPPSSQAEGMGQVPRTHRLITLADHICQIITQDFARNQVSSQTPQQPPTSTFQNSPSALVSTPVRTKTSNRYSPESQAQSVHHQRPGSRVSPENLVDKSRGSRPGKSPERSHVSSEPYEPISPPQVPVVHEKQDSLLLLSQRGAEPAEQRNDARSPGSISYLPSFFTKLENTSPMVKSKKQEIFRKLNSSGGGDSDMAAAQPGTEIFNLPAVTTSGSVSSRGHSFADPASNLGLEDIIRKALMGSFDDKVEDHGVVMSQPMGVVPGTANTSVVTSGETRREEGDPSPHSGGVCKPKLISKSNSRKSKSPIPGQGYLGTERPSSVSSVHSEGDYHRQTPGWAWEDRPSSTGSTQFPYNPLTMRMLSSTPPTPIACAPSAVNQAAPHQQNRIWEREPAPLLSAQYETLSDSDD

On to `Nc1cccc(-c2csc(NC(=O)CCCCCC(=O)NO)n2)c1`, for which the IC50 in series [1] stood at 3.3 nM; at Histone deacetylase 3, 2.1 nM; on Histone deacetylase 8 [2], 1950 nM; in series [3] it was 3.7 nM; on Histone deacetylase 2 [4] it was 26.5 nM; on Histone deacetylase 1 [5], 3.8 nM.

On to `Nc1ccccc1NC(=O)CCCCCC(=O)Nc1ccccc1`, for which the IC50 result at Histone deacetylase 7 [6], on Histone deacetylase 5 and on Histone deacetylase 4 [7] was “Not Active” throughout.

With `Nc1ccccc1NC(=O)c1ccc(-c2cn(CCc3ccsc3)nn2)cc1`, the IC50 in series [8] was found to be 240 nM.

On to `Nc1ccccc1NC(=O)c1cnccn1`, for which the IC50 in series [9] was above 20000 nM.

For `CC(=O)Nc1ccc(C(=O)Nc2ccc(F)cc2N)cc1`, the pKa in [10] came out at 2.33.

For the compound `C=C1CN(Cc2ccc(C(=O)Nc3ccccc3N)cc2)C(=O)c2ccccc21`, the IC50 at Histone deacetylase 1 [11] is 4800 nM; on Histone deacetylase 8 [12], above 10000 nM; in [13], above 10000 nM; on Histone deacetylase 7 [14] it was 4100 nM; on Histone deacetylase 2 [15], 30 nM; on Histone deacetylase 4 [16], 5000 nM.

Regarding `CCOC(=O)Nc1cccc(-c2csc(NC(=O)CCCCCC(=O)NO)n2)c1`, the IC50 in [1] is 0.79 nM; against Histone deacetylase 3, 1.3 nM; on Histone deacetylase 8 [2], 787 nM; in series [3], 2.1 nM; at Histone deacetylase 2 [4], 24.5 nM; against Histone deacetylase 1 [5], 2.5 nM.

Turning to `CC(C)(C)OC(=O)Nc1cccc(-c2csc(NC(=O)CCCCCC(=O)Nc3ccccc3N)n2)c1`, the IC50 in series [1] is 1500 nM; on Histone deacetylase 3, 160 nM; at Histone deacetylase 8 [2] it was above 30000 nM; in series [3], 5300 nM; on Histone deacetylase 2 [4] it was 1100 nM; at Histone deacetylase 1 [5] it was 4200 nM.

Take `CC(=O)Nc1cccc(-c2csc(NC(=O)CCCCCC(=O)Nc3ccccc3N)n2)c1`: the IC50 in series [1] is 11200 nM; on Histone deacetylase 3, 30 nM; at Histone deacetylase 8 [2], above 30000 nM; in [3] it was 3000 nM; against Histone deacetylase 2 [4], 200 nM; against Histone deacetylase 1 [5], 3200 nM.

In the case of `CC(C)(C)OC(=O)Nc1cccc(-c2csc(NC(=O)CCCCCC(=O)NO)n2)c1`, the IC50 was below 0.17 nM in [1]; 1.7 nM at Histone deacetylase 3; 2580 nM against Histone deacetylase 8 [2]; 5.7 nM in series [3]; 21 nM at Histone deacetylase 2 [4]; 4.2 nM against Histone deacetylase 1 [5].

As for `CCOC(=O)Nc1cccc(-c2csc(NC(=O)CCCCCC(=O)Nc3ccccc3N)n2)c1`, the IC50 in series [1] is above 30000 nM; on Histone deacetylase 3 it was 60 nM; on Histone deacetylase 8 [2] it was above 30000 nM; in [3], above 30000 nM; against Histone deacetylase 2 [4] it was 880 nM; against Histone deacetylase 1 [5], 24800 nM.

As to `Nc1cccc(-c2csc(NC(=O)CCCCCC(=O)Nc3ccccc3N)n2)c1`, the IC50 in series [1] was above 30000 nM; against Histone deacetylase 3 it was 60.3 nM; against Histone deacetylase 8 [2] it was above 30000 nM; in [3] it was 2910 nM; on Histone deacetylase 2 [4], 147 nM; against Histone deacetylase 1 [5], 2490 nM.

Turning to `CC(=O)Nc1ccc(C(=O)Nc2ccccc2N)cc1` [TACEDINALINE], the pKa in series [10] was 3.33.

(Values after ChEMBL document CHEMBL4400533, “Histone deacetylase 3 inhibitors in learning and memory processes with special emphasis on benzamides” (Eur J Med Chem, 2019).)
